How the values were obtained:
Experiment in all cases: Turf selectivity evaluation, visual phytotoxicity, glasshouse pots
Type in all cases: in vivo
Details in all cases: visual evaluation 7, 14, 21, 28 DAA
[1] = test system: Poa pratensis (POAPR, Kentucky Bluegrass, Midnight star)
Method: (§1) Turf selectivity evaluations were performed on the most important cool-season turf varieties, across 4 application rates with two replications contained within a factorial design. Sarmentine was applied at 0, 1500, 3000, and 6000 g ai ha^−1 on Sep. 11, 2010 using a spray volume of 800 L ha^−1 with 0.2% V/V x-77 adjuvant. The solution was delivered with LU 90-02S Lechler nozzles at 2.58 bars with an application speed of 0.96 km hr^−1.
(§2) Plants were grown in 9 cm diameter pots using Les Barges soil, previously characterized as containing 25.4% clay; 7.1% loam, 67.5% sand, 7% CaCO3, 2.4% organic matter, and pH 7.5. Pots were fertilized with Oscarna Rasaflor at 100 g m-2 at seeding. Plants were grown throughout the experiment with day/night temperatures of 23° C./15° C. with relative humidity of between 50-60%.
(§3) Turf species (Table 1) were visually evaluated for symptoms of phytotoxicity (%) using the untreated control as a bench-mark for comparison at 7, 14, 21, and 28 days after application (DAA). Turfgrass species were mown at 13 DAA.

[2] = test system: Agrostis stolonifera (AGSST, Creeping Bentgrass, Pennlinks)
Method: as §1, §2, §3

[3] = test system: Lolium perenne (LOLPE, Perennial Ryegrass, Citation Fore)
Method: as §1, §2, §3

[4] = test system: Festuca arundinacea (FESAR, Tall Fescue, Farandole)
Method: as §1, §2, §3

[5] = test system: Poa annua var. Reptans (POAAN, Annual bluegrass, True Putt)
Method: as §1, §2, §3

[6] = rate 1500 g ai ha^-1, grass x rate estimate
[7] = rate 3000 g ai ha^-1, grass x rate estimate
[8] = rate 6000 g ai ha^-1, grass x rate estimate

CCCCC/C=C/C=C/C(=O)N1CCCC1 [sarmentine, N-(2E,4E-Decadienoyl)pyrrolidine]
Phyto-toxicity Estimate (% of Untreated) [1, 6]: 6.3 % of Untreated | Phyto-toxicity Estimate (% of Untreated) [1, 7]: 8.8 % of Untreated | Phyto-toxicity Estimate (% of Untreated) [1, 8]: 21.3 % of Untreated | Phyto-toxicity Estimate (% of Untreated) [2, 6]: 13.1 % of Untreated | Phyto-toxicity Estimate (% of Untreated) [2, 7]: 19.4 % of Untreated | Phyto-toxicity Estimate (% of Untreated) [2, 8]: 27.5 % of Untreated | Phyto-toxicity Estimate (% of Untreated) [3, 6]: 15.3 % of Untreated | Phyto-toxicity Estimate (% of Untreated) [3, 7]: 27.2 % of Untreated | Phyto-toxicity Estimate (% of Untreated) [3, 8]: 46.3 % of Untreated | Phyto-toxicity Estimate (% of Untreated) [4, 6]: 14.1 % of Untreated | Phyto-toxicity Estimate (% of Untreated) [4, 7]: 22.8 % of Untreated | Phyto-toxicity Estimate (% of Untreated) [4, 8]: 31.3 % of Untreated | Phyto-toxicity Estimate (% of Untreated) [5, 6]: 35.0 % of Untreated | Phyto-toxicity Estimate (% of Untreated) [5, 7]: 53.8 % of Untreated | Phyto-toxicity Estimate (% of Untreated) [5, 8]: 83.1 % of Untreated

From US20160000074A1, “HERBICIDAL COMPOSITION AND METHOD OF USE THEREOF” (SYNGENTA PARTICIPATIONS AG, priority 2013, published 2016)
